Usually Kd stands for the concentration at which binding is half-saturated.

Test [1] relates to affinity-purified ACA-6501 aPL antibody. Briefly: Resin-bound peptide binding of affinity-purified IgG aPL antibody. Details: species or system human. To be noted: immunoconjugate color reaction, versus unrelated control peptide and normal IgG. The source says: Phage sequences obtained with affinity-purified ACA-6501 and found to be phage-ELISA-positive were synthesized on a solid support recently developed for combinatorial synthetic peptide libraries. This support, a Rapp resin, has a high peptide density and uses a hydrophilic polyethylene glycol spacer before the first amino acid is coupled. […] Similar results were obtained with the other phage-ELISA-positive peptides tested. In the experiment shown, resin peptide-bound affinity-purified ACA-6501 aPL antibody was detected by an immunoconjugate color reaction.

For the next test, the system named is aPL sera. Briefly: Resin-bound peptide binding survey of patient sera. Details: species or system human. The source says: Two peptides were selected for aPL sera testing, one (5A12) representing the ACA-6501 screen and another one (4D3) representing the ACA-6626 screen. […] However, a significant degree of crossreactivity was detectable especially between ACA-6501 and ACA-6626.

The subject of test [2] is ACA-6501. Briefly: Phage-ELISA. In kind it is binding, human. To be noted: phage clones coated on wells, affACA-6501 2.5 μg/mL. On the procedure:
This method of selecting phage requires very tight binding of the insert to the screening antibody. Phage are directly coated onto wells of a microtitration plate and incubated with the screening antibody. Following washes to remove unbound antibody, an anti-human IgG alkaline phosphatase conjugate is added to bind any aPL antibodies bound to the phage. APL antibodies are then detected by adding a calorimetric substrate to the well which will react with alkaline phosphatase according to methods well known in the art.
Three mL cultures were prepared from 35 clones previously isolated with affinity purified ACA-6501 in several phage library screens as well as one fUSE 2 phage clone lacking a peptide insert which was used as a control. After centrifugation for 3 minutes at 17,000×g, 100 μL from each phage supernatant (adjusted to −2×10^11 particles/mL, based on absorbance) was added to microtitration plate wells (Falcon, Becton-Dickinson Labware, Lincoln Park, N.Y.) and allowed to incubate overnight at 4° C. Following four washes with TBS 7.4, the plate was blocked with 125 μL of 0.5% BSA/TBS for 1 hour at RT. After another four TBS washes, 100 μL of affACA-6501 previously diluted to 2.5 μg/mL in TBS/BSA was added to each well and allowed to incubate 1 hour at 37° C. Following an additional four washes, 100 μL anti-human IgG diluted 1:1000 in TBS/0.5% Tween was added to each well. After 1 hour at RT, enzyme substrate was added and the incubation allowed to proceed for 2 hours. Following the addition of 50 μL 0.2 M Na2HPO4 to stop the reaction, absorbance was measured at 550 nm in the automated plate absorbance reader. […] The sequences for these clones are showvn in Table 2.
A general note: In an ELISA, binding on a coated surface is turned into a signal by an enzyme label.

The target of another test is ACA-6701. Briefly: Direct binding fluorescence polarization binding assay (dbFP) and displacement kinetics. To be noted: for Kd: dbFP. Details: species or system human. The source says:
(§1) This assay detects direct binding of the peptide to aPL antibody. Since aPL antibodies bind to β2-GPI (the antigen), the ELISA competitive inhibition assay can show inhibition due to binding to β2-GPI as well inhibition due to binding of the peptide to the aPL antibody. Because binding to antibodies is required in order for the peptide to function as a Toleragen, it is essential to establish that a peptide can directly bind to an aPL antibody. This assay is used to determine the dissociation constants for peptides that bind to two aPL antibodies, ACA-6501 and ACA-6701. While the ELISA assay is useful for high throughput screening because it requires less antibody than the Fluorescence Polarization assay, however, ELISA-positive peptides should be further evaluated by the Fluorescence Polarization assay to determine whether they are capable of directly binding with aPL antibody.
The methodology is described in PanVera Application Guide (1994), PanVera Corporation. Briefly, a trace amount of fluorescein isothiocyanate (FITC) labeled peptide (CB2*-F) is titrated with antibody (ACA 6501 or 6701) and the polarization for the sample is plotted versus the antibody concentration. Polarization was measured with the PanVera Beacon instrument. Data were fitted to Equation 1. [formula]
where Y is the Y-axis value (milli-polarization units, mP), R is the total concentration of antibody receptor, PL is the polarization for free FITC-labeled peptide (F), and PH is the polarization for F complexed with R (FR). KD is the dissociation constant (reciprocal binding, constant) for F from the FR complex. For these equations to be valid, it must be true that F<<R. This titration is shown in FIGS. 22 and 23 for CB2*-F binding to ACA-6701 and ACA-6501 antibodies, respectively. […] Thus, CB2*-F binding to ACA-6701 is limited only by diffusion of these two molecules together.
(In general: Fluorescence polarisation rises when a labelled molecule tumbles more slowly, as on binding a larger partner.)

Test [3] deals with ACA-6501. Briefly: Direct binding fluorescence polarization binding assay (dbFP). More on the design: species or system human.
Description: as §1
The methodology is described in PanVera Application Guide (1994), PanVera Corporation. Briefly, a trace amount of fluorescein isothiocyanate (FITC) labeled peptide (CB2*-F) is titrated with antibody (ACA 6501 or 6701) and the polarization for the sample is plotted versus the antibody concentration. Polarization was measured with the PanVera Beacon instrument. Data were fitted to Equation 1. [formula] […]

In another test the target is ACA-6501 aPL antibody. Put plainly: Competitive binding peptide-ELISA, plates coated with tetravalent peptide ACA-6501/3B10. The note with it: monomeric peptide, ACA-6501 serum. More on the design: species or system human. The text has this:
Once ELISA-positive peptides are identified, it is necessary to quantitate their relative binding affinity to the aPL antibodies and to determine whether or not two peptides bind the same population of antibodies in a given patient serum via a peptide-competition ELISA assay. In this assay, various monomeric peptides compete with tetravalent peptides coated on a microtitration plate well. To perform the assay, the peptides to be evaluated are synthesized as monomers, ie., without the lysine branches employed in the synthesis of the tetravalent peptides, using standard Fmoc chemistry. The monomeric peptides are then purified and dissolved at known concentrations. Wells of a microtitration plate are coated with a tetravalent peptide known to bind to the aPL antibody. Serial dilutions of the monomeric peptides are incubated with a constant dilution of the aPL antibody. The dilution of the aPL antibody was previously determined by titering the antibody against the tetravalent peptide and selecting a dilution on the downslope of the titration curve. After incubating the antibody and monomeric peptides for one hour, the antibody/peptide solutions are added to the microtitration wells and a standard […] ELISA is performed. The concentration of each monomeric peptide that decreases binding of the aPL antibody with the tetravalent peptide is determined by plotting the calorimetric readings obtained for each well. The 50% inhibition point is used as the measure of the relative strength of binding for the monomeric peptides.
(A) Each well of an Immulon II plate (Dynatech Laboratories, Inc., Chantilly Va.) was coated with 100 μL of a solution containing 10 μg tetravalent peptide ACA 6501/3B10 in 50 mM sodium carbonate, pH 9.5, containing 35 mM sodium bicarbonate (Fisher Scientific, Pittsburgh, Pa., reagent grade) for at least 1 hour at RT, except for three wells used as blank controls. […]

Molecules are shown by their SMILES. Bridge positions count the residues as written; N and C are the ends. Peptide text beside a SMILES is read from it. * marks the point of attachment. FITC = O=C1OC2(c3ccc(O)cc3Oc3cc(O)ccc32)c2ccc(NC(=S)*)cc21

As for `CC[C@H](C)[C@@H]1NC(=O)[C@H](CC(C)C)NC(=O)[C@@H](NC(=O)[C@@H]2CCCN2C(=O)CNC(=O)[C@H](C)N)CSSC[C@@H](C(=O)N2CCC[C@H]2C(=O)NCC(=O)O)NC(=O)[C@H](CCCNC(=N)N)NC(=O)[C@H](CC(=O)O)NC(=O)[C@@H]2CCCN2C(=O)[C@H](C)NC(=O)[C@H](CC(C)C)NC1=O` [5A12, CLILAPDRC], in test [1], the “binding of affinity-purified ACA-6501 to resin-bound peptide” value was “dramatically outperformed an unrelated control peptide while not binding normal IgG”. In addition, the “pathologic sera (moderate to high GPL) with detectable peptide binding” value with aPL sera (13 pathologic sera) is 8 of the 13. For the same compound, the “control sera (low or no GPL score) with low peptide binding” value in the test on aPL sera (19 patient sera) was 2 out of 19. Besides, the “signal in the phage-ELISA” value in the test with ACA-6501 [2] is “significant signals”.

As for `CC[C@H](C)[C@@H]1NC(=O)[C@@H](NC(=O)[C@@H]2CCCN2C(=O)CNC(=S)Nc2ccc3c(c2)C(=O)OC32c3ccc(O)cc3Oc3cc(O)ccc32)CSSC[C@@H](C(=O)NCC(=O)O)NC(=O)[C@H](CCCNC(=N)N)NC(=O)[C@H](CC(=O)O)NC(=O)[C@H](CCCNC(=N)N)NC(=O)[C@H](C)NC(=O)[C@H](CC(C)C)NC(=O)[C@H](CC(C)C)NC1=O` [CB2*-F, FITC-GPCILLARDRCG] ({FITC}-GPCILLARDRCG-OH; disulfide 3-11), the dissociation constant (Kd) on ACA-6701 (from Equation 1, not corrected for antibody bivalency) came out at 256 nM; on ACA-6701 (multiplied by 2 to correct for antibody bivalency) it was 512 nM; at ACA-6501 [3] (dbFP titration of FIG. 24, from Equation 1, not corrected for antibody bivalency) it was 241 nM; on ACA-6501 [3] (dbFP, multiplied by 2 to correct for antibody bivalency), 482 nM. Further, the “dissociation rate constant Koff” value in the test on ACA-6701 (displacement of CB2*-F from 6701 by slight excess of CB2*) amounted to 0.0184 s⁻¹. Also, in the test on ACA-6701 (from KD and Koff, after correcting for antibody bivalency), the “association rate constant Kon” value was 36000 M⁻¹ s⁻¹.

Regarding `CC(C)C[C@@H]1NC(=O)[C@H](CC(C)C)NC(=O)[C@H](CC(C)C)NC(=O)[C@@H](NC(=O)[C@@H]2CCCN2)CSSC[C@@H](C(=O)N2CCC[C@H]2C(=O)NCC(=O)O)NC(=O)[C@H](CCCNC(=N)N)NC(=O)[C@H](CC(=O)O)NC(=O)[C@@H]2CCCN2C(=O)[C@H](C)NC1=O` [peptide 139] (H-PCLLLAPDRCPG-OH; disulfide 2-10), the “amount of peptide producing 50% inhibition of binding of ACA-6501 aPL antibody to tetravalent peptide ACA-6501/3B10” value at ACA-6501 aPL antibody turned out to be 6.9 µg.

Consider `CC(C)C[C@@H]1NC(=O)[C@H](CC(C)C)NC(=O)[C@H](CC(C)C)NC(=O)[C@@H](NC(=O)[C@@H]2CCCN2C(=O)CN)CSSC[C@@H](C(=O)N2CCC[C@H]2C(=O)NCC(=O)O)NC(=O)[C@H](CCCNC(=N)N)NC(=O)[C@H](CC(=O)O)NC(=O)[C@@H]2CCCN2C(=O)[C@H](C)NC1=O` [peptide 142] (H-GPCLLLAPDRCPG-OH; disulfide 3-11), for which the “amount of peptide producing 50% inhibition of binding of ACA-6501 aPL antibody to tetravalent peptide ACA-6501/3B10” value on ACA-6501 aPL antibody came to 0.7 µg.

As for `CC(C)C[C@@H]1NC(=O)[C@H](CC(C)C)NC(=O)[C@H](CC(C)C)NC(=O)[C@@H](NC(=O)[C@@H]2CCCN2C(=O)CNC(=O)[C@H](C)N)CSSC[C@@H](C(=O)N2CCC[C@H]2C(=O)NCC(=O)O)NC(=O)[C@H](CCCNC(=N)N)NC(=O)[C@H](CC(=O)O)NC(=O)[C@@H]2CCCN2C(=O)[C@H](C)NC1=O` [peptide 143] (H-AGPCLLLAPDRCPG-OH; disulfide 4-12), on ACA-6501 aPL antibody, the “amount of peptide producing 50% inhibition of binding of ACA-6501 aPL antibody to tetravalent peptide ACA-6501/3B10” value came to 0.9 µg.
